Data set [1] has as its system Plasmodium falciparum. Put plainly: Antimalarial activity against chloroquine resistant Plasmodium falciparum W2 infected in human erythrocytes assessed as inhibition of parasite growth incubated for 48 hrs by YOYO-1 dye based flow cytometric analysis. Format: functional, organism-based. Conditions: W2, 48 h. A general note: Flow cytometry measures light scatter and fluorescence of single cells or particles in a stream.

Data set [2] has as its system Plasmodium falciparum. Nature of the data set: Antimalarial activity against chloroquine sensitive Plasmodium falciparum 3D7 infected in human erythrocytes assessed as inhibition of parasite growth incubated for 48 hrs by YOYO-1 dye based flow cytometric analysis. The class given is functional, organism-based. The conditions noted are these: 3D7, 48 h.
Data set [3] deals with Plasmodium falciparum. Nature of the data set: Resistance index, ratio of IC50 for antimalarial activity against chloroquine resistant Plasmodium falciparum W2 infected in human erythrocytes to IC50 for antimalarial activity against chloroquine sensitive Plasmodium falciparum 3D7 infected in human erythrocytes. The class given is functional.
In the next data set the test system is MDA-MB-231. Put plainly: Cytotoxicity against human MDA-MB-231 cells incubated for 24 hrs by MTT assay. The class given is functional, cell-based. The conditions noted are these: MDA-MB-231, 24 h. (In general: Formazan colour is commonly taken as a measure of viable cells.)
The subject of the next data set is A549. Put plainly: Cytotoxicity against human A549 cells incubated for 24 hrs by MTT assay. The class given is functional, cell-based. The conditions noted are these: A549, 24 h.
Data set [4] is described as follows: Cytotoxicity against human HPL1D cells incubated for 24 hrs by MTT assay. Format: toxicity, cell-based.
Data set [5] can be described thus: Selectivity index, ratio of IC50 for cytotoxicity against human HPL1D cells to IC50 for antimalarial activity against chloroquine resistant Plasmodium falciparum W2 infected in human erythrocytes. The class given is toxicity, cell-based. Conditions: read-out: Ratio IC50.
Data set [6] is described as follows: Selectivity index, ratio of IC50 for cytotoxicity against human A549 cells to IC50 for antimalarial activity against chloroquine resistant Plasmodium falciparum W2 infected in human erythrocytes. The class given is functional.
A short description of data set [7]: Selectivity index, ratio of IC50 for cytotoxicity against human MDA-MB-231 cells to IC50 for antimalarial activity against chloroquine resistant Plasmodium falciparum W2 infected in human erythrocytes. Format: functional.
The subject of data set [8] is Erythrocyte. Put plainly: Cytotoxicity against human erythrocyte at 3 to 100 uM incubated for 3 hrs by microplate reader assay. The class given is toxicity, cell-based. The conditions noted are these: dose 3-100 µM.
Data set [9] deals with Erythrocyte. Nature of the data set: Hemolytic activity in human erythrocyte assessed as hemolysis at 25 uM incubated for 3 hrs by microplate reader assay. The class given is toxicity, cell-based.

Molecules are shown by their SMILES. Bounds are passed on as bounds.

By IC50 is commonly meant the point on the concentration scale where inhibition reaches its midpoint.

Take `COc1ccc(NC(=O)C(c2ccc(F)c(Cl)c2)N2CCN(c3ncnc4sc5c(c34)CCCC5)CC2)cc1` (centres undefined): the IC50 was 125 nM with Plasmodium falciparum [1], 1080 nM with Plasmodium falciparum [2], 520 nM with MDA-MB-231 and 430 nM in the data set with A549. In addition, the figures for the “Ratio IC50” value (in the data set with Plasmodium falciparum [3]; in data set [6]; in [7]) were 0.116, 3.43 and 4.15, respectively. The same compound had an IC50 at 24 h in [4] of 36100 nM. Moreover, the selectivity ratio in [5] was determined as 288. For the same compound, the Activity entry in the data set with Erythrocyte [8] is reported as “Non-Toxic”; with Erythrocyte [9] it was “Toxic”.

As to `O=C(O)C(c1ccc(F)c(F)c1)N1CCN(c2ncnc3sc4c(c23)CCCC4)CC1` (centres undefined), the IC50 with Plasmodium falciparum [1] is over 10000 nM.

In the case of `O=C(O)C(c1ccc(F)c(Cl)c1)N1CCN(c2ncnc3sc4c(c23)CCCC4)CC1` (centres undefined), the IC50 in the data set with Plasmodium falciparum [1] is over 10000 nM.

Consider `COc1ccc(NC(=O)C(c2ccc(C)cc2)N2CCN(c3ncnc4sc5c(c34)CCCC5)CC2)cc1` (centres undefined), for which the IC50 is 268 nM with Plasmodium falciparum [1] and 692 nM in the data set with Plasmodium falciparum [2]. Also, the “Ratio IC50” value in the data set with Plasmodium falciparum [3] stood at 0.387. Besides, the Activity entry is “Non-Toxic” in the data set with Erythrocyte [8] and “Toxic” with Erythrocyte [9].

For the compound `COc1cccc2c1C(=O)c1c(O)c3c(c(O)c1C2=O)C[C@@](O)(C(=O)CO)C[C@@H]3O[C@H]1C[C@H](N)[C@H](O)[C@H](C)O1` [DOXORUBICIN], it took 5800 nM to reach half-maximal inhibition in the data set with MDA-MB-231 (IC50).

On to `Cc1ccc(C(C(=O)O)N2CCN(c3ncnc4sc5c(c34)CCCC5)CC2)cc1` (centres undefined), for which the IC50 in the data set with Plasmodium falciparum [1] came to 8520 nM.

In the case of `O=C(O)C(c1ccc(OC(F)(F)F)cc1)N1CCN(c2ncnc3sc4c(c23)CCCC4)CC1` (centres undefined), the IC50 in the data set with Plasmodium falciparum [1] is over 10000 nM.

In the case of `COc1ccc(NC(=O)C(c2ccc(F)cc2)N2CCN(c3ncnc4sc5c(c34)CCCC5)CC2)cc1` (centres undefined), the figures for the half-inhibitory concentration (IC50) in the data set on Plasmodium falciparum [1] and in the data set with Plasmodium falciparum [2] were 171 nM and 1220 nM, respectively. Further, the “Ratio IC50” value with Plasmodium falciparum [3] amounted to 0.173. In addition, the results for the Activity entry in the data set with Erythrocyte [8] and in the data set on Erythrocyte [9] were “Non-Toxic” and “Toxic”, respectively.

As to `O=C(O)C(c1ccc(Cl)c(Cl)c1)N1CCN(c2ncnc3sc4c(c23)CCCC4)CC1` (centres undefined), the IC50 with Plasmodium falciparum [1] was over 10000 nM.

Consider `O=C(O)C(c1ccc(F)cc1)N1CCN(c2ncnc3sc4c(c23)CCCC4)CC1` (centres undefined), for which the 50% inhibitory concentration (IC50) in the data set on Plasmodium falciparum [1] is over 10000 nM.

On to `COc1ccc(NC(=O)C(c2ccc(OC)cc2)N2CCN(c3ncnc4sc5c(c34)CCCC5)CC2)cc1` (centres undefined), for which the results for the 50% inhibitory concentration (IC50) with Plasmodium falciparum [1] and in the data set with Plasmodium falciparum [2] were 187 nM and 698 nM, respectively. For the same compound, in the data set with Plasmodium falciparum [3], the “Ratio IC50” value stood at 0.268. For the same compound, the figures for the Activity result in the data set with Erythrocyte [8] and with Erythrocyte [9] were “Non-Toxic” and “Toxic”, respectively.

For the compound `COc1ccc(NC(=O)C(c2ccc(Cl)c(Cl)c2)N2CCN(c3ncnc4sc5c(c34)CCCC5)CC2)cc1` (centres undefined), the IC50 in the data set with Plasmodium falciparum [1] is 68 nM; in the data set with Plasmodium falciparum [2], 933 nM; in the data set with MDA-MB-231, 740 nM; in the data set on A549, 810 nM. Further, the “Ratio IC50” value in the data set on Plasmodium falciparum [3] worked out at 0.073; in data set [6], 11.91; in [7], 10.88. In data set [4], the half-maximal inhibitory concentration (IC50) at 24 h was determined as 31300 nM. In addition, in [5], the selectivity ratio was 460. Besides, the results for the Activity entry in the data set on Erythrocyte [8] and in the data set with Erythrocyte [9] were “Non-Toxic” and “Toxic”, respectively.

Turning to `COc1ccc(NC(=O)C(c2ccc(F)c(F)c2)N2CCN(c3ncnc4sc5c(c34)CCCC5)CC2)cc1` (centres undefined), the half-maximal inhibitory concentration (IC50) in the data set with Plasmodium falciparum [1] came to 133 nM; with Plasmodium falciparum [2] it was 728 nM; in the data set with MDA-MB-231, 310 nM; with A549, 750 nM. In addition, the “Ratio IC50” value with Plasmodium falciparum [3] was found to be 0.183; in [6] it was 5.64; in data set [7] it was 2.33. In addition, the midpoint of inhibition in data set [4], the IC50 at 24 h, lay at 27200 nM. Also, in data set [5], the selectivity ratio stood at 205. Moreover, the Activity entry is recorded as “Non-Toxic” in the data set with Erythrocyte [8] and “Toxic” in the data set with Erythrocyte [9].

Consider `COc1ccc(C(C(=O)O)N2CCN(c3ncnc4sc5c(c34)CCCC5)CC2)cc1` (centres undefined), for which, in the data set on Plasmodium falciparum [1], the IC50 is over 10000 nM.

On to `O=C(O)C(c1ccc(C(F)(F)F)cc1)N1CCN(c2ncnc3sc4c(c23)CCCC4)CC1` (centres undefined), for which the concentration for half-maximal inhibition (IC50) in the data set on Plasmodium falciparum [1] turned out to be 6630 nM.

Consider `COc1ccc(NC(=O)C(c2ccc(C(F)(F)F)cc2)N2CCN(c3ncnc4sc5c(c34)CCCC5)CC2)cc1` (centres undefined), for which the 50% inhibitory concentration (IC50) with Plasmodium falciparum [1] was determined as 56 nM; in the data set on Plasmodium falciparum [2] it was 837 nM; with MDA-MB-231, 110 nM; in the data set with A549, 80 nM. For the same compound, the results for the “Ratio IC50” value (with Plasmodium falciparum [3]; in data set [6]; in data set [7]) were 0.067, 1.43 and 1.97, respectively. In data set [4], this compound showed a concentration for half-maximal inhibition (IC50) at 24 h of 39900 nM. For the same compound, the selectivity ratio in data set [5] was 716. The Activity entry in the data set with Erythrocyte [8] is given as “Non-Toxic”; with Erythrocyte [9], “Toxic”.

For `COc1ccc(NC(=O)C(c2ccc(OC(F)(F)F)cc2)N2CCN(c3ncnc4sc5c(c34)CCCC5)CC2)cc1` (centres undefined), the IC50 came out at 61 nM in the data set with Plasmodium falciparum [1], 888 nM in the data set with Plasmodium falciparum [2], 460 nM in the data set with MDA-MB-231 and 370 nM with A549. Besides, the “Ratio IC50” value in the data set with Plasmodium falciparum [3] stood at 0.068; in data set [6], 6.08; in data set [7], 7.56. The concentration for half-maximal inhibition (IC50) at 24 h in data set [4] came to 28700 nM. The selectivity ratio in data set [5] amounted to 472. The Activity entry in the data set on Erythrocyte [8] is on record as “Non-Toxic”; in the data set with Erythrocyte [9], “Toxic”.

The values are drawn from ChEMBL document CHEMBL5321198, “Identification, in-vitro anti-plasmodial assessment and docking studies of series of tetrahydrobenzothieno[2,3-d]pyrimidine-acetamide molecular hybrids as potential antimalarial agents” (Eur J Med Chem, 2023).
